Measured values from patent publication US9283235B2, “Intermittent lowering of cortisol as treatment of clinical conditions associated with abnormal concentrations of cortisol in animals” (Stegram Pharmaceuticals Limited, priority 2001, dated 2016).

Columns and labels:
[1] = system: canine PDH; settings: of 10 dogs studied; cited from earlier work
[2] = system: dogs with hyperadrenocorticism (HAC); assay: Prospective study of trilostane in dogs with spontaneous hyperadrenocorticism (HAC): clinical signs and survival; format: in vivo, dog; settings: given to 4 dogs for three to four days before enrolment
Method: Animals were entered into a prospective study and all animals required clinical and laboratory signs of hyperadrenocorticism as well as a final diagnosis of this disease. Data collected from each case included a clinical-historicy and physical examination, full blood count (CBC), serum biochemical profile, urinalysis and abdominal ultrasound. An ACTH-stimulation test was performed in all dogs. […] Dogs that had been treated for HAC other medication needed to be off these drugs for at least 10 days. Dogs with renal or hepatic insufficiency and dogs that received steroids were not included in the study.
Dogs with pituitary dependant hyperadrenocorticism or adrenal tumour which was unresectable or the owners were unwilling to have surgery performed, respectively, were treated with trilostane. The initial dose for dogs[…] was 30 mg once daily, dogs between 5 and 15 kg received 60 mg once daily and dogs>15 kg received 120 mg once daily. Dosages were adjusted based on clinical signs, blood biochemical parameters and an ACTH stimulation test.
Follow-up re-examinations took place after 10 days, 4 weeks, 3 mouths, 6 months and then every 6 months or within 4 weeks of adjusting the dosage. At these points, owners were carefully questioned about their perception of the dogs general well being, dissolution of clinical signs and potential side effects and a physical examination was performed. A full biochemical profile and an ACTH stimulation test were carried out. Further tests such as urinanalysis, urine culture, thoracic radiographs, etc. were done if deemed necessary. If the clinical sips of hyperadrenocorticism (polyuria/polydipsia, polyphagia, exercise intolerance, etc.) were still present and if the post-ACTH cortisol concentration remained above 220 nmol/l, trilostane was given twice daily at the same dosage.

| SMILES | Dogs with improvement of clinical signs [1] [dogs] | Clinical effect [2] |
| --- | --- | --- |
| C#CCN(C)[C@H](C)Cc1ccccc1 [L-Deprenyl] | 2 | – |
| Clc1ccc(C(c2ccccc2Cl)C(Cl)Cl)cc1 (centres unmarked) [Lysodren] | – | did not show any clinical effect |
